The target in experiment [1] is Cyclin-Y/Cyclin-dependent kinase 16 (Homo sapiens) (UniProt Q00536+Q8ND76). The experiment is described as follows: Inhibition of human PCTAIRE1/CyclinY assessed as residual activity at 1 uM using RBER-GSK3 as substrate in presence of 33P-ATP by ProQinase assay relative to control. It counts as protein-complex assay.
Experiment [2] concerns the target Serine/threonine-protein kinase MARK1 (Homo sapiens) (UniProt Q9P0L2). The experiment is described as follows: Inhibition of human MARK1 assessed as residual activity at 1 uM using RBER-CHKtide as substrate in presence of 33P-ATP by ProQinase assay relative to control.
Experiment [3] deals with T1, Tyrosine-protein kinase JAK3 (Homo sapiens) (UniProt P52333).
T1 sequence (whole entry): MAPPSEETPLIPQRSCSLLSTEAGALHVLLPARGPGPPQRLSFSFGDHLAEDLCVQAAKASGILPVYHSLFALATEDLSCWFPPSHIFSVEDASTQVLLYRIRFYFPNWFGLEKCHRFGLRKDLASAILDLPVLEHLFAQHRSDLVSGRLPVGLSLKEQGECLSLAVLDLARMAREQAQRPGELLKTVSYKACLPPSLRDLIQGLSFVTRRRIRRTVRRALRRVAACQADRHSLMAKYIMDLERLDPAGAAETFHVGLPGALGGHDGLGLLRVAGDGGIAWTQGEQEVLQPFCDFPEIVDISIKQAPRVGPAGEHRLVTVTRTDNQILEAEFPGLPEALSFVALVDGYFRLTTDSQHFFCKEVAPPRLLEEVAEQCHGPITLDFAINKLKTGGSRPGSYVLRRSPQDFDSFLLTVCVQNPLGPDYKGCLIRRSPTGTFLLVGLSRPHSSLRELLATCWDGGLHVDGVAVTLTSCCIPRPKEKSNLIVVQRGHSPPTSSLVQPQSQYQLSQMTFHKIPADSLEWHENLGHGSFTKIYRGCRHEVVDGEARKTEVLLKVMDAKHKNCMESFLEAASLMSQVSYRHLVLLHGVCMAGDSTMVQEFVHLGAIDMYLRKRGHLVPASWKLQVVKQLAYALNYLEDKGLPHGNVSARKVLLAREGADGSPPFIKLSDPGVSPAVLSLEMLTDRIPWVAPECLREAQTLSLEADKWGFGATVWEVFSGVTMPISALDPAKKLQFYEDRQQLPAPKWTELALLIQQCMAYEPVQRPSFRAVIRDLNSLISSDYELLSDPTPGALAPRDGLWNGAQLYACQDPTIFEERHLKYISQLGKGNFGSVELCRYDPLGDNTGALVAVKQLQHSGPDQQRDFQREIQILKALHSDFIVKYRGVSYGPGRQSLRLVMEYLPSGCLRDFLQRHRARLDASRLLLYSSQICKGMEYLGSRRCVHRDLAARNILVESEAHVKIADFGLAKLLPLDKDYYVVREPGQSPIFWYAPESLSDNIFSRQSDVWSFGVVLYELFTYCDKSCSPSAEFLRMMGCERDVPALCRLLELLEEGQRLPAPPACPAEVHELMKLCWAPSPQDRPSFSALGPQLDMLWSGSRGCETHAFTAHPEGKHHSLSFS
The experiment is described as follows: Inhibition of human JAK3 assessed as residual activity at 1 uM using poly(Ala,Glu,Lys,Tyr)6:2:5:1 as substrate in presence of 33P-ATP by ProQinase assay relative to control.

Experiment [4] concerns the target Ephrin type-A receptor 6 (Homo sapiens) (UniProt Q9UF33). The experiment is described as follows: Inhibition of EPHA6 (unknown origin) assessed as remaining activity at 1 uM by Kinome scan method relative to control.
The target in experiment [5] is Wee1-like protein kinase (Homo sapiens) (UniProt P30291). The experiment is described as follows: Inhibition of human WEE1 assessed as residual activity at 1 uM using poly(Ala,Glu,Lys,Tyr)6:2:5:1 as substrate in presence of 33P-ATP by ProQinase assay relative to control.
Experiment [6] concerns the target T2, Serine/threonine-protein kinase 17A (Homo sapiens) (UniProt Q9UEE5).
T2 sequence (whole entry): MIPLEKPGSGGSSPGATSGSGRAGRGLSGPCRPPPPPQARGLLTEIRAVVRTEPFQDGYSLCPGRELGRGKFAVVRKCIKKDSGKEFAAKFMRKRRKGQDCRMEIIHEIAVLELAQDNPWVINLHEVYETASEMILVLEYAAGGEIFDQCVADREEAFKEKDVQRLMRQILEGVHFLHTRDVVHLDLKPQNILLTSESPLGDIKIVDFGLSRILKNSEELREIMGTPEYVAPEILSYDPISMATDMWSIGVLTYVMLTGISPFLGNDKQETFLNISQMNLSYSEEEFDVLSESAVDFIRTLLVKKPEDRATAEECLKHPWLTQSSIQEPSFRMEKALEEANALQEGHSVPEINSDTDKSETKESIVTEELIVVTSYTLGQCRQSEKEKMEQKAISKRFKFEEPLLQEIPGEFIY
The experiment is described as follows: Inhibition of human STK17A assessed as residual activity at 1 uM using RB-CTF as substrate in presence of 33P-ATP by ProQinase assay relative to control.

Experiment [7] relates to Receptor-type tyrosine-protein kinase FLT3 (Homo sapiens), P36888 [D835Y]. The experiment is described as follows: Inhibition of FLT3 D835Y mutant (unknown origin) assessed as remaining activity at 1 uM by Kinome scan method relative to control.
Experiment [8] has as its target Epidermal growth factor receptor (Homo sapiens) (UniProt P00533). The experiment is described as follows: Inhibition of EGFR (unknown origin) assessed as remaining activity at 1 uM by Kinome scan method relative to control.
The target in experiment [9] is Dual specificity protein kinase CLK4 (Homo sapiens) (UniProt Q9HAZ1). The experiment is described as follows: Inhibition of CLK4 (unknown origin) assessed as remaining activity at 1 uM by Kinome scan method relative to control.
For experiment [10], the target named is 5'-AMP-activated protein kinase catalytic subunit alpha-1 (Homo sapiens) (UniProt Q13131). The experiment is described as follows: Inhibition of human AMPKalpha1 assessed as residual activity at 1 uM using RBER-CHKtide as substrate in presence of 33P-ATP by ProQinase assay relative to control.
Experiment [11] addresses Tyrosine-protein kinase Fyn (Homo sapiens) (UniProt P06241). The experiment is described as follows: Inhibition of human FYN assessed as residual activity at 1 uM using polyEY as substrate in presence of 33P-ATP by ProQinase assay relative to control.
Experiment [12] concerns the target Vascular endothelial growth factor receptor 1 (Homo sapiens) (UniProt P17948). The experiment is described as follows: Inhibition of human VEGFR1 assessed as residual activity at 1 uM using polyEY as substrate in presence of 33P-ATP by ProQinase assay relative to control.
Experiment [13] addresses Proto-oncogene tyrosine-protein kinase ROS (Homo sapiens) (UniProt P08922). The experiment is described as follows: Inhibition of ROS1 (unknown origin) assessed as remaining activity at 1 uM by Kinome scan method relative to control.
Experiment [14] has as its target Serine/threonine-protein kinase PAK 1 (Homo sapiens) (UniProt Q13153). The experiment is described as follows: Inhibition of PAK1 (unknown origin) assessed as remaining activity at 1 uM by Kinome scan method relative to control.
Experiment [15] concerns the target Serine/threonine-protein kinase SBK1 (Homo sapiens) (UniProt Q52WX2). The experiment is described as follows: Inhibition of SBK1 (unknown origin) assessed as remaining activity at 1 uM by Kinome scan method relative to control.

Vascular endothelial growth factor receptor 1 (Homo sapiens), sequence (P17948 whole entry): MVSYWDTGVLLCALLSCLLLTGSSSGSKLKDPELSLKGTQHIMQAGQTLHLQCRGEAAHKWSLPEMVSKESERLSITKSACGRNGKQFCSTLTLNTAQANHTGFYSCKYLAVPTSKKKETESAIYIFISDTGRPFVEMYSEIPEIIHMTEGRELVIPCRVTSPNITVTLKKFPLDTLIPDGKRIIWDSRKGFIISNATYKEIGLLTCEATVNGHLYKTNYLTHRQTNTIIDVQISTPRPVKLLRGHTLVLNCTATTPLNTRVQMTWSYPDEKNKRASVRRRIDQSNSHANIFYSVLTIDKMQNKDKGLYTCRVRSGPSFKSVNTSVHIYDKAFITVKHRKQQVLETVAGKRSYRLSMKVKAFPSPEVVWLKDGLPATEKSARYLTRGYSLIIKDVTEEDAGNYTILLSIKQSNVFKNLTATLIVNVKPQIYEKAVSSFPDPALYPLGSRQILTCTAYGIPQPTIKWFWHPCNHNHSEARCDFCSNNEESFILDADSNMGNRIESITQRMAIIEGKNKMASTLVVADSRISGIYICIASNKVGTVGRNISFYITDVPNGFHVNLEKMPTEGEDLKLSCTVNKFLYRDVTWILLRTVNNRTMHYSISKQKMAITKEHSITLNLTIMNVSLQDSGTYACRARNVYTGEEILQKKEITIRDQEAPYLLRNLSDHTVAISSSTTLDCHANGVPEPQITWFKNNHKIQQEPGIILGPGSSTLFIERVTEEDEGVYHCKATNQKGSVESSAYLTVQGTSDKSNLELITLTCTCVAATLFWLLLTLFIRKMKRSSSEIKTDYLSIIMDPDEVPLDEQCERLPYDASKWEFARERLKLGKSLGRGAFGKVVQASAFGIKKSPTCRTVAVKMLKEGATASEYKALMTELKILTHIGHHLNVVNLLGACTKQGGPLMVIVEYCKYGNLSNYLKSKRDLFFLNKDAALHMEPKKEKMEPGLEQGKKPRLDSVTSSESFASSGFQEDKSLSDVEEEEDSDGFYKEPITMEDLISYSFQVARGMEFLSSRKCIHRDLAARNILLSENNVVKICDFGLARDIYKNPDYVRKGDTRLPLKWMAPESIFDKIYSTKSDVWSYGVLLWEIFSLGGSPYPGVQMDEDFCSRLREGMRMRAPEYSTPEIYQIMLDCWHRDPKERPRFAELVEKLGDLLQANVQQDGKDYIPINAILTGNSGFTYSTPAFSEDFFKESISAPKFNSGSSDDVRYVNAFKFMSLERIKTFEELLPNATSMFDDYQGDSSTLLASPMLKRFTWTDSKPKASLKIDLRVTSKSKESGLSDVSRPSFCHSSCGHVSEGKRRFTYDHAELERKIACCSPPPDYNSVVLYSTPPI
Ephrin type-A receptor 6 (Homo sapiens), sequence (Q9UF33 whole entry): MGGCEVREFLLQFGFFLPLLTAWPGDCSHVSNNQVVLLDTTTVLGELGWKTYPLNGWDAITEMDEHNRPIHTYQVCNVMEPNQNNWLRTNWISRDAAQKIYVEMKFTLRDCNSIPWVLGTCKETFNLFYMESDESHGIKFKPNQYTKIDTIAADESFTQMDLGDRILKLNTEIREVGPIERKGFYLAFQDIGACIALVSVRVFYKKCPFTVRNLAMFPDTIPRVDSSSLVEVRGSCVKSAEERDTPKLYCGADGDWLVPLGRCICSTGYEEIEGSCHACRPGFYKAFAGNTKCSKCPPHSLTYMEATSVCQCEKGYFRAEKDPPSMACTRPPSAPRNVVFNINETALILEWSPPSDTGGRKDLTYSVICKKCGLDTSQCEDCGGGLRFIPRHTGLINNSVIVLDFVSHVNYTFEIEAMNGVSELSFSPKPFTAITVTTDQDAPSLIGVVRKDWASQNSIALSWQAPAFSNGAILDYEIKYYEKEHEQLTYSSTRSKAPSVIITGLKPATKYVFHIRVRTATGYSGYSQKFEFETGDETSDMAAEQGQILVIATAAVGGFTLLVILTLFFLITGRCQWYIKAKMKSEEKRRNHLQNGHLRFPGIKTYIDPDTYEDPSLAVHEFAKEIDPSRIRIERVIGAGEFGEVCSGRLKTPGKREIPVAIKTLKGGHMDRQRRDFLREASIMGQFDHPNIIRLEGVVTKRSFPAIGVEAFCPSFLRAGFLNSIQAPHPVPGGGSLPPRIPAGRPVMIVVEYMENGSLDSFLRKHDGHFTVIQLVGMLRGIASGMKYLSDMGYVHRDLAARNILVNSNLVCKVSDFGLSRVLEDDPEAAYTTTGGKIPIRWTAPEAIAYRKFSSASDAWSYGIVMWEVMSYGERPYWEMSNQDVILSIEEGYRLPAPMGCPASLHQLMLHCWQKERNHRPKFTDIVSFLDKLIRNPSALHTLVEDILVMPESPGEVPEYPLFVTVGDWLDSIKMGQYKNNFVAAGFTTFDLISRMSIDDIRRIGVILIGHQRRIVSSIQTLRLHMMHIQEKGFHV
Proto-oncogene tyrosine-protein kinase ROS (Homo sapiens), sequence (P08922 whole entry): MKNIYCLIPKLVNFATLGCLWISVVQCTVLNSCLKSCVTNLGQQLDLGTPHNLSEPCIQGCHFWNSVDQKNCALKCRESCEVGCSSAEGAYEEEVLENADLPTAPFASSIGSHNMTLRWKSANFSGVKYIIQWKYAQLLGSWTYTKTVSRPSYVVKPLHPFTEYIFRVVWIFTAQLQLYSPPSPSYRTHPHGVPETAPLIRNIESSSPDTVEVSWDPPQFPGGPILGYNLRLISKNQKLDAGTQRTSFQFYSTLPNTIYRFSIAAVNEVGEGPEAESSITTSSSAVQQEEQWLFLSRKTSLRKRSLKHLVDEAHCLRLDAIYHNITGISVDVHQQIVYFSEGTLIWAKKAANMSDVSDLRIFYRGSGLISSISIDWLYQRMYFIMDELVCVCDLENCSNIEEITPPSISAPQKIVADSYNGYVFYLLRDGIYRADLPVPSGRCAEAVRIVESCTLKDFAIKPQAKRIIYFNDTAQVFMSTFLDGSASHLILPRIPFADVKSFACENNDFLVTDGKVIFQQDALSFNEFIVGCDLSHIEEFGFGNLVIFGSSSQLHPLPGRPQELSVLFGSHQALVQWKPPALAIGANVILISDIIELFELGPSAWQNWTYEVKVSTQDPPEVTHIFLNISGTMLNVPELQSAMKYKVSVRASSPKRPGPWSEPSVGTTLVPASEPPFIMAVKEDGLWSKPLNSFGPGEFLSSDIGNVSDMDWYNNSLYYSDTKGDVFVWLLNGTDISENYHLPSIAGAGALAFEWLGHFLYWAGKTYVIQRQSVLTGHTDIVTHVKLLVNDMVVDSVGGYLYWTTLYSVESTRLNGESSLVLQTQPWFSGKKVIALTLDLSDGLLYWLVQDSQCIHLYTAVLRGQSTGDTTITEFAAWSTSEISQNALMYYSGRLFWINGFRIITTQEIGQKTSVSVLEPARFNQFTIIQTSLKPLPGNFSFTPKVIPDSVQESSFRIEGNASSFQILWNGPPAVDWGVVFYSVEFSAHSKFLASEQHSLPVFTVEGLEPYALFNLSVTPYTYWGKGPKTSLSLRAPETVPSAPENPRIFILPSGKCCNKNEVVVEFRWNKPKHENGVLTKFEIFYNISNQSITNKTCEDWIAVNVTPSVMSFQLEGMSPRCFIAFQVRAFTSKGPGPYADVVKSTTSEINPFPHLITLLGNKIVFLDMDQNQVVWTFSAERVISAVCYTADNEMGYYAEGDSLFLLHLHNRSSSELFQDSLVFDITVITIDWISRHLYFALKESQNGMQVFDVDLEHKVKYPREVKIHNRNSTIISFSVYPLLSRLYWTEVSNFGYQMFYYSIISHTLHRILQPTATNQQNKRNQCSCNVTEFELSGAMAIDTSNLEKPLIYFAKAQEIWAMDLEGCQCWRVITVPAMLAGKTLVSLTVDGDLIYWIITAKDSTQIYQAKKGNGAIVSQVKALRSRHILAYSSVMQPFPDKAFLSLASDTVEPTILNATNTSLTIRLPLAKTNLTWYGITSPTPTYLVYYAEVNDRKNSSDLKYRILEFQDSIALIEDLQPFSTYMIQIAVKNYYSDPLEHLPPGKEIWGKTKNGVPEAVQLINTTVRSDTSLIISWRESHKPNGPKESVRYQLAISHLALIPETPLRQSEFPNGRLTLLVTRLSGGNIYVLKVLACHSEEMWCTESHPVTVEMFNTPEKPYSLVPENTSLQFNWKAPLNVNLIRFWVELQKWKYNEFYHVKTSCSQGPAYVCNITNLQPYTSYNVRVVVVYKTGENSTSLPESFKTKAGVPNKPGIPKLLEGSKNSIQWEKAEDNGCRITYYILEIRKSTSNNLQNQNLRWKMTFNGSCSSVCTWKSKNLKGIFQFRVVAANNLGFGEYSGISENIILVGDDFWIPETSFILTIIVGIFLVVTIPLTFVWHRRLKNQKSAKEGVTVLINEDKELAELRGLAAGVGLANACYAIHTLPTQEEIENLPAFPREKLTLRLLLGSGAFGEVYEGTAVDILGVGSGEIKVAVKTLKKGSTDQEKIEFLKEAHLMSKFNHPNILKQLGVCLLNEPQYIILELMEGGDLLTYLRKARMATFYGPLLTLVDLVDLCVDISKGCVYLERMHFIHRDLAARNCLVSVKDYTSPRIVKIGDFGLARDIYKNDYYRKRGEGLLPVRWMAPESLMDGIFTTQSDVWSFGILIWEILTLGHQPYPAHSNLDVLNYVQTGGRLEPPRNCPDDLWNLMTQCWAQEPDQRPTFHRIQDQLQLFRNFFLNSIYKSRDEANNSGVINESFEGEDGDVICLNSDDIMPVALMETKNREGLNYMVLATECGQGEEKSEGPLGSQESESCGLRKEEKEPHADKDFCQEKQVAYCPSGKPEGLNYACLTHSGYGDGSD
Serine/threonine-protein kinase SBK1 (Homo sapiens), sequence (Q52WX2 whole entry): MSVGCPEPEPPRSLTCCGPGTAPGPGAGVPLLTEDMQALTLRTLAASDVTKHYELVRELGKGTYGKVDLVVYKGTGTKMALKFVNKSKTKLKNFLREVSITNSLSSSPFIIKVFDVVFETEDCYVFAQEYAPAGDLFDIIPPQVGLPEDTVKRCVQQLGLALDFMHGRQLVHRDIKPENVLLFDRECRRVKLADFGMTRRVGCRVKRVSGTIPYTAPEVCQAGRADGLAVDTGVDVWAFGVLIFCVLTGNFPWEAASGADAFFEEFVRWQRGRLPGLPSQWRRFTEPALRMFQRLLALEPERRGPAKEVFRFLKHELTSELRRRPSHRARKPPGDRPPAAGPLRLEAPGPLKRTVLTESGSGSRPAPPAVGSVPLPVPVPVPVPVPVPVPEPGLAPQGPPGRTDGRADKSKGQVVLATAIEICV

For the compound `O=C1c2ccc(Nc3ccc(F)cc3F)cc2CCc2ccc(OC[C@H](O)CO)cc21` [Skepinone-L], the Activity in [1] was found to be 79%; in experiment [2], 88%; in experiment [3] it was 103%; in experiment [4] it was 96%; in [5] it was 88%; in experiment [6], 77%. Moreover, the Activity is 98% in [7]; 98% in [8]; 100% in [9]; 84% in [10]; 124% in [11]; 113% in experiment [12]. The figures for the Activity in [13], in experiment [14] and in [15] were 99%, 100% and 100%, respectively.

The values above are taken from ChEMBL document CHEMBL5696441 (Nat Chem Biol, 2011).
